Measurements reported in patent US20260355318A1, “MOLECULAR MACHINES FOR TREATMENT OF CANCER, FUNGAL INFECTIONS, OR BACTERIAL INFECTIONS” (priority 2022, published 2026).
Where two headings read alike, the source gives them in different places.

Assays:
[1] = tested on: mitochondrial cytochrome c; test: Cytochrome c release; assay type: cell-based, Candida albicans; conditions: 2×MIC, p<0.05
Experimental: Cells were harvested for protoplast preparation by digestion with zymolyase 20 T (20 mg mL-1, US Biological Life Sciences, MA, USA) in 0.1 M potassium phosphate buffer (pH 6.0) containing 1 M sorbitol for 1 h at 30 °C. Mitochondrial cytochrome c was extracted and reduced with ascorbic acid (0.5 mg mL^−1) as previously described (Yun and Lee, 2016). The absorbance at 550 nm was determined on a Beckman Coulter DU 800 spectrophotometer (Fullerton, CA, USA). Cytochrome c levels were normalized to the protein content determined using the Pierce assay (Pierce™ BCA Protein Assay Kit, Thermo Fisher Scientific, MA, USA).

A. baumannii = test: Time-kill / light-dose experiments, A. baumannii; assay type: cell-based, Acinetobacter baumannii; conditions: highest concentration of MM (5 μM), 405 nm
Experimental: Serial dilutions of irradiated cell suspensions were prepared in PBS. A volume of 10 AL of the appropriate serial dilutions was spot-plated onto LB agar plates. Following overnight incubation at 30 or 37 ° C, depending on the strain, bacterial viability was assessed as colony forming units (CFU) per mL. Results were expressed as log (N/NO) whereby N is the CFU mL^−1 at each irradiation time point and NO is the initial CFU mL^−1 of the corresponding sample. Only dilutions that yielded 10-100 colonies were counted.

B. cereus = test: MIC, B. cereus; assay type: cell-based; conditions: Bacillus cereus, read-out: MIC of MM
Experimental: The appropriate volume of an MM stock at 8 mM necessary to achieve a concentration ranging from 0.3125 to 40 μM was pipetted into a 2 mL microcentrifuge tube to which 1 mL of cell suspension prepared as previously described was added. Corresponding negative controls (DMSO only) were prepared in the same way. The mixture was gently mixed by pipetting and incubated in the dark at 30 or 37 ° C, depending on the strain, for 30 min with agitation (220 rpm). Afterward, MM- or DMSO-treated cells were dispensed in one well of a 24-well plate positioned in the center of the light beam (405 nm LED Light, Prizmatix, UHP—F-5-405) placed at the appropriate distance necessary to achieve the desired light intensity of 304 mW cm-2, 146 mW cm2 or 87 mW cm2, as measured with a handheld digital power meter console coupled to an S415C thermal power sensor head (Thorlabs, Newton, MA, USA). The temperature during irradiation was monitored using a thermocouple probe (Model SC-TT-K-30-36-PP; Omega Engineering, Inc., Stanford, CT, USA). Samples were agitated during irradiation. Dark controls were prepared as previously described except that no irradiation was provided. […]

[2] = tested on: A. baumannii, E. coli, P. aeruginosa, S. aureus; test: Resistance development / cross-resistance in bacteria (serial passaging); assay type: cell-based
Experimental: Isolation of MM-resistant mutants of E. coli, A. baumannii, P. aeruginosa, and S. aureus was attempted by irradiating cell suspensions treated with 4×MIC of the different MMs for 5 min at 146 mW cm^−2 (43.8 J cm^−2). No visible colonies could be obtained for any of the strains tested.
For resistance development by sequential passaging (Ling et al., 2015), A. baumannii, E. coli, P. aeruginosa, and S. aureus cells in exponential phase were collected and processed as described for MIC determination. Cells were incubated at 37 ° C for 24 h after which they were inspected for growth. Cells able to grow at 0.5×MIC were collected and re-challenged with a range of MM concentrations and then irradiated. The antibiotics ciprofloxacin and gentamicin (for Gram-negatives) or ciprofloxacin and tobramycin (for S. aureus) were used as controls.

C. albicans = test: MIC, visible-light-activated MMs and conventional antifungals, C. albicans; assay type: cell-based, Candida albicans (ATCC 18804); conditions: Candida albicans, read-out: MIC of MM
Procedure, shortened: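 C. albicans suspensions (~10^4 CFU/mL in saline, CLSI) incubated 30 min in the dark with MMs, then irradiated with stirring at 405 nm, 292 mW cm^−2 for 5 min (87.6 J cm^−2). Cells then grown in MOPS-buffered RPMI 1640 (pH 7.0) at 30 °C for 48 h; MIC is lowest concentration with no visible growth; conventional antifungals tested likewise.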

P. aeruginosa = test: MIC, P. aeruginosa; assay type: cell-based, Pseudomonas aeruginosa; conditions: Pseudomonas aeruginosa, read-out: MIC of MM
Experimental: The appropriate volume of an MM stock at 8 mM necessary to achieve a concentration ranging from 0.3125 to 40 μM was pipetted into a 2 mL microcentrifuge tube to which 1 mL of cell suspension prepared as previously described was added. Corresponding negative controls (DMSO only) were prepared in the same way. The mixture was gently mixed by pipetting and incubated in the dark at 30 or 37 ° C, depending on the strain, for 30 min with agitation (220 rpm). Afterward, MM- or DMSO-treated cells were dispensed in one well of a 24-well plate positioned in the center of the light beam (405 nm LED Light, Prizmatix, UHP—F-5-405) placed at the appropriate distance necessary to achieve the desired light intensity of 304 mW cm-2, 146 mW cm2 or 87 mW cm2, as measured with a handheld digital power meter console coupled to an S415C thermal power sensor head (Thorlabs, Newton, MA, USA). The temperature during irradiation was monitored using a thermocouple probe (Model SC-TT-K-30-36-PP; Omega Engineering, Inc., Stanford, CT, USA). Samples were agitated during irradiation. Dark controls were prepared as previously described except that no irradiation was provided.
For MIC determination, samples treated with a range of concentrations of the different MM, as described above and were irradiated one at a time for 5 min at 146 mW cm^−2 (43.8 J cm^−2), after which irradiated aliquots were collected and inoculated into 1 mL MHB in a 2 mL microcentrifuge tube. Samples were incubated overnight at 30 or 37 ° C, depending on the strain, without agitation. Corresponding non-irradiated samples and negative controls (without bacteria) were also included. The following day, cultures were inspected for growth and the MIC was identified. The experimental procedure used to determine the MIC of visible light-activated MMs is schematically depicted in FIG. 26.

[3] = Escherichia coli, read-out: MIC of MM in antibiotic-resistant E. coli
[4] = Staphylococcus aureus, S. aureus Gentamycin^R, one line per passage 1-20, read-out: MIC of MM in antibiotic-resistant S. aureus

| SMILES | mitochondrial cytochrome c levels [1] | light dose for complete eradication (A. baumannii) | MIC (B. cereus) | MIC [2, 3] | MIC [2, 4] | MIC (C. albicans) | MIC (P. aeruginosa) |
| --- | --- | --- | --- | --- | --- | --- | --- |
| C[C@@H]1Cc2ccc3ccccc3c2/C1=C1\c2ccccc2Sc2cc(NCCN)ccc21 (racemic) [MM 6, N^1-(9-(2-methyl-2,3-dihydro-1H-cyclopenta[a]naphthalen-1-ylidene)-9H-thioxanthen-3-yl)ethane-1,2-diamine] | significant reductions in mitochondrial cytochrome c levels | at least 40 J cm^−2 | 10 µM | 0.5 µM | 0.125 µM | ≤ 5 µM | 0.625 µM |
| C[C@@H]1Cc2ccc3ccccc3c2/C1=C1\c2ccccc2Sc2cc(NCCN(C)C)ccc21 [MM 1, N^1N^1-dimethyl-N^2-(9-(2-methyl-2,3-dihydro-1H-cyclopenta[a]naphthalen-1-ylidene)-9H-thioxanthen-3-yl) ethane-1,2-diamine] | significant reductions in mitochondrial cytochrome c levels | at least 40 J cm^−2 | 10 µM | 4 µM | 0.125 µM | ≤ 5 µM | 0.625 µM |
